Starred links: 1 amine or outer side, 2 acyl side, 3 side chain; linkers in the order of their positions; H or OH if unused. Positions of bridges follow the written chain, without caps; N, C: chain ends. Non-standard residues stand in square brackets, D forms with d. Residues, ends and D or L forms follow the SMILES beside them. *: point of attachment. Orn(4R-OH,5R-OH) = O=C([C@H](C[C@@H](O)[C@@H](O)N[*:3])N[*:1])[*:2]; hTyr(3S-OH,4S-OH) = N[C@H](C(=O)O)[C@H](O)[C@@H](O)c1ccc(O)cc1; Pro(3S-OH,4S-Me) = C[C@H]1CN[C@H](C(=O)O)[C@H]1O; X2 = CCCCCCCCCCCCCCS(=O)(=O)c1ccc(C(=O)*)cc1; Benzoyl(4-octyl) = CCCCCCCCc1ccc(C(=O)*)cc1; X22 = CCCCCCCCCCCCOc1ccc(CCC(=O)*)cc1; X18 = CCCCCCCCCCCCOc1ccc(CC(=O)*)cc1; X10 = CCCCCCCCCCCCOc1cccc(C(=O)*)c1; X16 = CCCCCCCCOc1ccc(C=CC(=O)*)cc1; X21 = CCCCCCCCOc1ccc(CCC(=O)*)cc1; Hyp = O=C(O)[C@@H]1C[C@@H](O)CN1; X15 = CCCCCCCCOc1cccc(CC(=O)*)c1; X19 = CCCCCCOc1ccc(C=CC(=O)*)cc1; X9 = CCCCCCCCCCOc1cccc(C(=O)*)c1; X12 = CCCCCCOc1ccc(CCC(=O)*)cc1; X13 = CCCCCCCCOc1cccc(C(=O)*)c1; X14 = CCCCCCOc1ccc(C(=O)*)cc1; X17 = CCCCOc1ccc(CCC(=O)*)cc1
What was measured:
Candida albicans A-26 = experiment: Agar plate disc diffusion test, MIC per disc; format: cell-based; conditions: 0.1M sodium borate, pH 7.5, 24 hours, 30° C.
Experimental: (§1) Tables 10 and 11 give the results of the testing in vitro of the compounds of Examples 3 and 4 by agar-plate disc-diffusion methods. In Table 10 activity is measured by the size (diameter in mm) of the observed zone of inhibition of the microorganism produced by the test compound. In Table 11, activity is measured by the minimal inhibitory concentration (MIC) of the substance (μg/disc) required to inhibit growth of the test organism. Table 12 gives the results of the testing in vitro of the p-(n-octyloxy)benzoyl derivative of A30912A nucleus [Formula III, R^1 is p-(n-octyloxy)benzoyl] against five strains of Candida albicans by the agar dilution method. In Table 12 activity is measured by the minimal inhibitory concentration (MIC) of the substance (μg/ml) required to inhibit the test organism.
(§2) ^(a) Compounds were suspended in 0.1M sodium borate solution, pH 7.5.
(§3) The compounds were tested at 20 μg/disc at top level and at twofold
(§4) dilutions until end points were reached. Incubation: 24 hours; 30°

[1] = test system: Trychophyton mentagrophyes #6; experiment: Agar plate disc diffusion test, MIC per disc; format: cell-based, Trichophyton mentagrophytes; conditions: 0.1M sodium borate, pH 7.5, 24 hours, 30° C., * measurable zones with regrowth of organism around disc
Experimental: as §1, §2, §3, §4
*Measurable zones of inhibition with regrowth of organism around disc.

| SMILES | MIC (Candida albicans A-26) | MIC [1] |
| --- | --- | --- |
| CCCCCCCCCCCCCCS(=O)(=O)c1ccc(C(=O)N[C@H]2C[C@@H](O)[C@@H](O)NC(=O)[C@@H]3[C@@H](O)[C@@H](C)CN3C(=O)[C@H]([C@@H](C)O)NC(=O)[C@H]([C@H](O)[C@@H](O)c3ccc(O)cc3)NC(=O)[C@@H]3C[C@@H](O)CN3C(=O)[C@H]([C@@H](C)O)NC2=O)cc1 [drawing 126] (X2-[Orn(4R-OH,5R-OH)]T[Hyp][hTyr(3S-OH,4S-OH)]T[Pro(3S-OH,4S-Me)]; lactam 1-C) | 0.625 μg/disc | 0.039 μg/disc |
| CCCCCCCCOc1cccc(C(=O)N[C@H]2C[C@@H](O)[C@@H](O)NC(=O)[C@@H]3[C@@H](O)[C@@H](C)CN3C(=O)[C@H]([C@@H](C)O)NC(=O)[C@H]([C@H](O)[C@@H](O)c3ccc(O)cc3)NC(=O)[C@@H]3C[C@@H](O)CN3C(=O)[C@H]([C@@H](C)O)NC2=O)c1 [drawing 127] (X13-[Orn(4R-OH,5R-OH)]T[Hyp][hTyr(3S-OH,4S-OH)]T[Pro(3S-OH,4S-Me)]; lactam 1-C) | 10 μg/disc | > 40 μg/disc |
| CCCCCCCCCCOc1cccc(C(=O)N[C@H]2C[C@@H](O)[C@@H](O)NC(=O)[C@@H]3[C@@H](O)[C@@H](C)CN3C(=O)[C@H]([C@@H](C)O)NC(=O)[C@H]([C@H](O)[C@@H](O)c3ccc(O)cc3)NC(=O)[C@@H]3C[C@@H](O)CN3C(=O)[C@H]([C@@H](C)O)NC2=O)c1 [drawing 128] (X9-[Orn(4R-OH,5R-OH)]T[Hyp][hTyr(3S-OH,4S-OH)]T[Pro(3S-OH,4S-Me)]; lactam 1-C) | 2.5 μg/disc | > 40 μg/disc |
| CCCCCCCCCCCCOc1cccc(C(=O)N[C@H]2C[C@@H](O)[C@@H](O)NC(=O)[C@@H]3[C@@H](O)[C@@H](C)CN3C(=O)[C@H]([C@@H](C)O)NC(=O)[C@H]([C@H](O)[C@@H](O)c3ccc(O)cc3)NC(=O)[C@@H]3C[C@@H](O)CN3C(=O)[C@H]([C@@H](C)O)NC2=O)c1 [drawing 129] (X10-[Orn(4R-OH,5R-OH)]T[Hyp][hTyr(3S-OH,4S-OH)]T[Pro(3S-OH,4S-Me)]; lactam 1-C) | 2.5 μg/disc | > 40 μg/disc |
| CCCCCCOc1ccc(C(=O)N[C@H]2C[C@@H](O)[C@@H](O)NC(=O)[C@@H]3[C@@H](O)[C@@H](C)CN3C(=O)[C@H]([C@@H](C)O)NC(=O)[C@H]([C@H](O)[C@@H](O)c3ccc(O)cc3)NC(=O)[C@@H]3C[C@@H](O)CN3C(=O)[C@H]([C@@H](C)O)NC2=O)cc1 [drawing 131] (X14-[Orn(4R-OH,5R-OH)]T[Hyp][hTyr(3S-OH,4S-OH)]T[Pro(3S-OH,4S-Me)]; lactam 1-C) | 2.5 μg/disc | 0.312 μg/disc |
| CCCCCCCCc1ccc(C(=O)N[C@H]2C[C@@H](O)[C@@H](O)NC(=O)[C@@H]3[C@@H](O)[C@@H](C)CN3C(=O)[C@H]([C@@H](C)O)NC(=O)[C@H]([C@H](O)[C@@H](O)c3ccc(O)cc3)NC(=O)[C@@H]3C[C@@H](O)CN3C(=O)[C@H]([C@@H](C)O)NC2=O)cc1 [drawing 133] ({Benzoyl(4-octyl)}-[Orn(4R-OH,5R-OH)]T[Hyp][hTyr(3S-OH,4S-OH)]T[Pro(3S-OH,4S-Me)]; lactam 1-C) | 0.625 μg/disc | 0.156 μg/disc |
| CCCCOc1ccc(CCC(=O)N[C@H]2C[C@@H](O)[C@@H](O)NC(=O)[C@@H]3[C@@H](O)[C@@H](C)CN3C(=O)[C@H]([C@@H](C)O)NC(=O)[C@H]([C@H](O)[C@@H](O)c3ccc(O)cc3)NC(=O)[C@@H]3C[C@@H](O)CN3C(=O)[C@H]([C@@H](C)O)NC2=O)cc1 [drawing 134] (X17-[Orn(4R-OH,5R-OH)]T[Hyp][hTyr(3S-OH,4S-OH)]T[Pro(3S-OH,4S-Me)]; lactam 1-C) | 20 μg/disc | 1.25 μg/disc |
| CCCCCCOc1ccc(CCC(=O)N[C@H]2C[C@@H](O)[C@@H](O)NC(=O)[C@@H]3[C@@H](O)[C@@H](C)CN3C(=O)[C@H]([C@@H](C)O)NC(=O)[C@H]([C@H](O)[C@@H](O)c3ccc(O)cc3)NC(=O)[C@@H]3C[C@@H](O)CN3C(=O)[C@H]([C@@H](C)O)NC2=O)cc1 [drawing 135] (X12-[Orn(4R-OH,5R-OH)]T[Hyp][hTyr(3S-OH,4S-OH)]T[Pro(3S-OH,4S-Me)]; lactam 1-C) | 0.625 μg/disc | 0.156 μg/disc |
| CCCCCCCCOc1ccc(CCC(=O)N[C@H]2C[C@@H](O)[C@@H](O)NC(=O)[C@@H]3[C@@H](O)[C@@H](C)CN3C(=O)[C@H]([C@@H](C)O)NC(=O)[C@H]([C@H](O)[C@@H](O)c3ccc(O)cc3)NC(=O)[C@@H]3C[C@@H](O)CN3C(=O)[C@H]([C@@H](C)O)NC2=O)cc1 [drawing 136] (X21-[Orn(4R-OH,5R-OH)]T[Hyp][hTyr(3S-OH,4S-OH)]T[Pro(3S-OH,4S-Me)]; lactam 1-C) | 0.078 μg/disc | 0.156 μg/disc |
| CCCCCCCCCCCCOc1ccc(CCC(=O)N[C@H]2C[C@@H](O)[C@@H](O)NC(=O)[C@@H]3[C@@H](O)[C@@H](C)CN3C(=O)[C@H]([C@@H](C)O)NC(=O)[C@H]([C@H](O)[C@@H](O)c3ccc(O)cc3)NC(=O)[C@@H]3C[C@@H](O)CN3C(=O)[C@H]([C@@H](C)O)NC2=O)cc1 [drawing 137] (X22-[Orn(4R-OH,5R-OH)]T[Hyp][hTyr(3S-OH,4S-OH)]T[Pro(3S-OH,4S-Me)]; lactam 1-C) | 0.312 μg/disc | 0.156 μg/disc |
| CCCCCCOc1ccc(C=CC(=O)N[C@H]2C[C@@H](O)[C@@H](O)NC(=O)[C@@H]3[C@@H](O)[C@@H](C)CN3C(=O)[C@H]([C@@H](C)O)NC(=O)[C@H]([C@H](O)[C@@H](O)c3ccc(O)cc3)NC(=O)[C@@H]3C[C@@H](O)CN3C(=O)[C@H]([C@@H](C)O)NC2=O)cc1 [drawing 139] (X19-[Orn(4R-OH,5R-OH)]T[Hyp][hTyr(3S-OH,4S-OH)]T[Pro(3S-OH,4S-Me)]; lactam 1-C) | 1.25 μg/disc | 0.156 μg/disc |
| CCCCCCCCOc1ccc(C=CC(=O)N[C@H]2C[C@@H](O)[C@@H](O)NC(=O)[C@@H]3[C@@H](O)[C@@H](C)CN3C(=O)[C@H]([C@@H](C)O)NC(=O)[C@H]([C@H](O)[C@@H](O)c3ccc(O)cc3)NC(=O)[C@@H]3C[C@@H](O)CN3C(=O)[C@H]([C@@H](C)O)NC2=O)cc1 [drawing 140] (X16-[Orn(4R-OH,5R-OH)]T[Hyp][hTyr(3S-OH,4S-OH)]T[Pro(3S-OH,4S-Me)]; lactam 1-C) | 0.156 μg/disc | 0.156 μg/disc |
| CCCCCCCCOc1cccc(CC(=O)N[C@H]2C[C@@H](O)[C@@H](O)NC(=O)[C@@H]3[C@@H](O)[C@@H](C)CN3C(=O)[C@H]([C@@H](C)O)NC(=O)[C@H]([C@H](O)[C@@H](O)c3ccc(O)cc3)NC(=O)[C@@H]3C[C@@H](O)CN3C(=O)[C@H]([C@@H](C)O)NC2=O)c1 [drawing 141] (X15-[Orn(4R-OH,5R-OH)]T[Hyp][hTyr(3S-OH,4S-OH)]T[Pro(3S-OH,4S-Me)]; lactam 1-C) | 5 μg/disc | 80 μg/disc |
| CCCCCCCCCCCCOc1ccc(CC(=O)N[C@H]2C[C@@H](O)[C@@H](O)NC(=O)[C@@H]3[C@@H](O)[C@@H](C)CN3C(=O)[C@H]([C@@H](C)O)NC(=O)[C@H]([C@H](O)[C@@H](O)c3ccc(O)cc3)NC(=O)[C@@H]3C[C@@H](O)CN3C(=O)[C@H]([C@@H](C)O)NC2=O)cc1 [drawing 142] (X18-[Orn(4R-OH,5R-OH)]T[Hyp][hTyr(3S-OH,4S-OH)]T[Pro(3S-OH,4S-Me)]; lactam 1-C) | 0.312 μg/disc | 0.625 μg/disc |
